Results from patent US7459449B2 (priority 2004, dated 2008).
Counter-ions that a name gives are not always drawn. Like-named read-outs stand apart in the source and are kept apart here.

Tests used:
[1] = Tendency to form solvates (acetone); assay type: physicochemical; settings: generally acetone as the solvent
From the text: Additionally the inventive salts are not prone to forming solvates. Solvates with organic solvents such as acetone, dichloromethane, dioxane, etc., are inconvenient in pharmaceutical applications because of the toxicity of the solvent. […] A typical example of such a solvate salt is the acetone solvate of olanzapine succinate. The solvent may nevertheless be present in the wet cake of the crude material after isolation in solid state, but a solvent-free product should be obtained by ordinary means of drying. A solvent-free salt (i.e. less than 0.5%, preferably less than 0.1%, of the solvent present) is particularly preferred as the absence of the solvent is advantageous for pharmaceutical applications.

Stability against light = assay type: physicochemical
Hygroscopicity = assay type: physicochemical
[2] = Water solubility test at 10 mg/ml; settings: thermodynamic from solid
[3] = cited from earlier work
[4] = Isolation of the olanzapine salt in solid form; assay type: physicochemical
[5] = Stability of 1% aqueous solution against precipitation; settings: for Is 1% solution stable from precipitation?: 1% aqueous solution, at least 12 to 24 hours (overnight)
From the text: (§1) A failure was considered to be 1% or more of impurities being formed; i.e. if 1% or more formed, then the salt is reported as “No,” not stable, for the corresponding test.

[6] = Solid state stability (impurity formation on storage); assay type: physicochemical; settings: short period of storage
From the text: as §1

## Cc1cc2c(s1)Nc1ccccc1N=C2N1CCN(C)CC1.O=C(O)C(O)C(O)C(=O)O.O=C(O)C(O)C(O)C(=O)O [Di-L-tartrate, reference compound]
[1]
  Is there low tendency to form solvates?: No

## Cc1cc2c(s1)Nc1ccccc1N=C2N1CCN(C)CC1.O=C(O)C=CC(=O)O.O=C(O)C=CC(=O)O [Dimaleate, reference compound]
[1]
  Is there low tendency to form solvates?: No

## Cc1cc2c(s1)Nc1ccccc1N=C2N1CCN(C)CC1.Cc1cc2c(s1)Nc1ccccc1N=C2N1CCN(C)CC1.O=C(O)CCCCC(=O)O [Hemiadipate, Olanzapine Hemi-Adipate]
[1]
  Is there low tendency to form solvates?: Yes

## Cc1cc2c(s1)Nc1ccccc1N=C2N1CCN(C)CC1.Cc1cc2c(s1)Nc1ccccc1N=C2N1CCN(C)CC1.O=S(=O)(O)O [Hemisulfate, reference compound]
[1]
  Is there low tendency to form solvates?: No

## Cc1cc2c(s1)Nc1ccccc1N=C2N1CCN(C)CC1.O=C(O)CC(=O)O [Hydrogenmalonate, Olanzapine Hydrogenmalonate]
[1]
  Is there low tendency to form solvates?: Yes
Stability against light
  stability against the action of light: sufficiently stable against the action of light
Hygroscopicity
  hygroscopicity: generally non-hygroscopic

## CC(O)C(=O)O.Cc1cc2c(s1)Nc1ccccc1N=C2N1CCN(C)CC1 [Mono-L-lactate, Olanzapine Lactate]
[1]
  Is there low tendency to form solvates?: Yes

## Cc1cc2c(s1)Nc1ccccc1N=C2N1CCN(C)CC1.O=C(O)c1ccccc1 [Monobenzoate, Olanzapine Benzoate]
[1]
  Is there low tendency to form solvates?: Yes
Stability against light
  stability against the action of light: sufficiently stable against the action of light
Hygroscopicity
  hygroscopicity: generally non-hygroscopic

## CCS(=O)(=O)O.Cc1cc2c(s1)Nc1ccccc1N=C2N1CCN(C)CC1 [Monoesylate, Olanzapine Esylate]
[1]
  Is there low tendency to form solvates?: Yes

## Cc1cc2c(s1)Nc1ccccc1N=C2N1CCN(C)CC1 [Monohydrochloride, Olanzapine Monohydrochloride]
[2]
  solubility: > 10000 µg/mL

## Cc1cc2c(s1)Nc1ccccc1N=C2N1CCN(C)CC1.O=S(=O)(O)O [Monosulfate, Olanzapine Hydrogensulfate]
[1]
  Is there low tendency to form solvates?: No

## Cc1cc2c(s1)Nc1ccccc1N=C2N1CCN(C)CC1.O.O=C(O)c1cc2ccccc2c(Cc2c(O)c(C(=O)O)cc3ccccc23)c1O [Pamoate, olanzapine pamoate, reference compound]
[1]
  Is there low tendency to form solvates?: No
[3]
  water solubility (in words), background: insoluble in water

## Mandelate [reference compound]
[4]
  Readily isolatable in solid form?: No

## Olanzapine
[3]
  water solubility (in words), background: insoluble in water
[3]; pH 6.8, marketed free base
  solubility at pH 6.8: 0.02 mg/ml

## Olanzapine Acetate [Monoacetate]
[4]
  Readily isolatable in solid form?: Yes
[1]
  Is there low tendency to form solvates?: Yes
[5]
  Is 1% solution stable from precipitation?: No

## Olanzapine Besylate [Monobesylate]
[4]
  Readily isolatable in solid form?: Yes
[1]
  Is there low tendency to form solvates?: Yes
[5]
  Is 1% solution stable from precipitation?: No

## Olanzapine Hemi-Succinate [Hemisuccinate]
[4]
  Readily isolatable in solid form?: Yes
[1]
  Is there low tendency to form solvates?: No
[5]
  Is 1% solution stable from precipitation?: No

## Olanzapine Hemifumarate
[4]
  Readily isolatable in solid form?: Yes
[1]
  Is there low tendency to form solvates?: No
[5]
  Is 1% solution stable from precipitation?: No

## Olanzapine Hydrogenmaleate
[4]
  Readily isolatable in solid form?: Yes
[1]
  Is there low tendency to form solvates?: Yes
Stability against light
  stability against the action of light: sufficiently stable against the action of light
Hygroscopicity
  hygroscopicity: generally non-hygroscopic
Listed as maleate
  water solubility (in words): good water solubility
Listed as olanzapine hydrogenmaleate
  water solubility (in words): soluble in water
[5]
  Is 1% solution stable from precipitation?: No
[5]; aqueous solution
  hydrolysis by water (liberation of olanzapine base in aqueous solution): hydrolysable by water

## Olanzapine Mesylate [Monomesylate]
[4]
  Readily isolatable in solid form?: Yes
[1]
  Is there low tendency to form solvates?: No
[5]
  Is 1% solution stable from precipitation?: No

## Olanzapine Mono-Tartrate [Mono-L-tartrate]
[4]
  Readily isolatable in solid form?: Yes
[1]
  Is there low tendency to form solvates?: No
[5]
  Is 1% solution stable from precipitation?: Yes

## Tosylate [reference compound]
[4]
  Readily isolatable in solid form?: No

## olanzapine dibesylate [reference compound]
[4]
  Readily isolatable in solid form?: Yes**
[6]
  solid state behaviour on storage: become oily after a short period of storage

## olanzapine dimesylate [reference compound]
[4]
  Readily isolatable in solid form?: Yes**
[6]
  solid state behaviour on storage: become oily after a short period of storage
